Measurements as given in publication PMC4704150 (Antimicrobial Agents and Chemotherapy, 2015).
Read-outs that look alike come from different tables or passages of the source. Marks after values point to notes of the source that are not given here.

Tests used:
[1] = tested on: genotypes other than genotype 1; conditions: cited from earlier work
[2] = Drug-drug interaction study, 2D regimen with digoxin; format: in vivo, human healthy volunteers; conditions: for change in the Cmax and AUC values upon coadministration: 2D regimen + digoxin vs 2D regimen alone
[3] = Drug-drug interaction study, 2D regimen with duloxetine, plasma pharmacokinetics; format: in vivo, human healthy volunteers; conditions: for change in the Cmax and AUC values upon coadministration: duloxetine + 2D regimen vs alone
[4] = format: in vivo, human healthy volunteers; conditions: for change in the Cmax and AUC values in the presence of the 2D regimen: except escitalopram AUC
[5] = human, in vivo
[6] = Drug-drug interaction study, 2D regimen with rosuvastatin; format: in vivo, human healthy volunteers; conditions: for increase in AUC upon coadministration / increase in Cmax upon coadministration: rosuvastatin + 2D regimen vs alone
[7] = Drug-drug interaction study, 2D regimen with omeprazole; format: in vivo, human healthy volunteers; conditions: for change in the Cmax and AUC values upon coadministration: 2D regimen + omeprazole vs 2D regimen alone
[8] = Drug-drug interaction study, 2D regimen with warfarin; format: in vivo, human healthy volunteers; conditions: for change in the Cmax and AUC values upon coadministration: warfarin + 2D regimen vs alone; for Cmax, Coadministration / AUC (AUC∞), Alone: warfarin study, geometric mean (%CV); for Cmax, Coadministration: warfarin + 2D regimen; for AUC (AUC∞), Alone: warfarin without 2D regimen
[9] = in vitro; cited from earlier work
[10] = format: in vivo, human healthy volunteers; conditions: coadministration vs alone; except in the ketoconazole study
[11] = Drug-drug interaction study, 2D regimen with pravastatin; format: in vivo, human healthy volunteers; conditions: for increase in AUC upon coadministration / increase in Cmax upon coadministration: pravastatin + 2D regimen vs alone
[12] = tested on: HCV subtypes 1a, 1b, 2a, 3a, 4a, and 6a; conditions: cited from earlier work
[13] = Drug-drug interaction study, 2D regimen with ketoconazole; format: in vivo, human healthy volunteers; conditions: ketoconazole + 2D regimen vs alone
P-glycoprotein (P-gp) = conditions: in vitro, at clinically relevant concentrations; cited from earlier work
[14] = tested on: breast cancer resistance protein (BCRP); conditions: in vitro, at clinically relevant concentrations; cited from earlier work
[15] = tested on: organic anion-transporting polypeptide 1B1/B3 (OATP1B1/B3); conditions: in vitro, at clinically relevant concentrations; cited from earlier work
[16] = cited from earlier work
[17] = digoxin + 2D regimen vs digoxin alone
[18] = escitalopram + 2D regimen vs escitalopram alone
[19] = 2D regimen + rosuvastatin vs 2D regimen alone
[20] = omeprazole + 2D regimen vs omeprazole alone
[21] = escitalopram study, escitalopram + 2D regimen, geometric mean (%CV)

COc1c(-c2ccc3cc(NS(C)(=O)=O)ccc3c2)cc(-n2ccc(=O)[nH]c2=O)cc1C(C)(C)C [Dasabuvir, dasabuvir]
activity against HCV genotypes other than genotype 1 [1]: not active

C[C@H]1O[C@@H](O[C@H]2[C@@H](O)C[C@H](O[C@H]3[C@@H](O)C[C@H](O[C@H]4CC[C@@]5(C)[C@H](CC[C@@H]6[C@@H]5C[C@@H](O)[C@]5(C)[C@@H](C7=CC(=O)OC7)CC[C@]65O)C4)O[C@@H]3C)O[C@@H]2C)C[C@H](O)[C@@H]1O [Digoxin, digoxin]
increase in AUC upon coadministration [2, 17]: 36%
increase in C24 upon coadministration [2, 17]: 24%
increase in Cmax upon coadministration [2, 17]: 58%
ratio of fraction excreted (fraction of unchanged drug eliminated in the urine) ([2]; digoxin + 2D regimen vs digoxin alone, urine): 1.01
AUC(0-inf) ([2]; human, plasma, 0.5 mg): 27.8 ng·h/mL

CNCC[C@H](Oc1cccc2ccccc12)c1cccs1 [Duloxetine, duloxetine]
change in the Cmax and AUC values upon coadministration [3]: ≤ 20%
AUC(0-inf) ([3]; human, plasma, oral, 60 mg): 648 ng·h/mL

CN(C)CCC[C@@]1(c2ccc(F)cc2)OCc2cc(C#N)ccc21 [Escitalopram, escitalopram]
decrease in AUC in the presence of the 2D regimen [4, 18]: 25%
change in the Cmax and AUC values in the presence of the 2D regimen [4, 18]: ≤ 20%
AUC(0-inf) ([4]; human, plasma, 10 mg): 262 ng·h/mL

C=CCN1CC[C@]23c4c5ccc(O)c4O[C@H]2C(=O)CC[C@@]3(O)[C@H]1C5 [Naloxone, naloxone]
AUC (AUCtau, AUC24), dose normalized, Alone [5]: 139 (53)^d^,^j pg · h/ml/mg
AUC (AUCtau, AUC24), dose normalized, Coadministration [5]: 154 (76)^d^,^j pg · h/ml/mg
Cmax, dose normalized, Alone [5]: 59.0 (44)^i pg/ml/mg
Cmax, dose normalized, Coadministration [5]: 58.1 (61)^i pg/ml/mg
change in the Cmax and AUC values upon coadministration [5]: ≤ 11%

COC(=O)N[C@H](C(=O)N1CCC[C@H]1C(=O)Nc1ccc([C@@H]2CC[C@@H](c3ccc(NC(=O)[C@@H]4CCCN4C(=O)[C@@H](NC(=O)OC)C(C)C)cc3)N2c2ccc(C(C)(C)C)cc2)cc1)C(C)C [Ombitasvir, ombitasvir]
change in Cmax and AUC values upon coadministration [6, 19]: ≤ 12%
lower Cmax upon coadministration [6, 19]: 12%
change in the Cmax and AUC values upon coadministration [7]: ≤ 7%
change in the Cmax and AUC values upon coadministration [8]: ≤ 15%
metabolic pathway [9]: predominantly metabolized by amide hydrolysis followed by oxidative metabolism
Tmax and t1/2 (where calculated) [10]: not affected in a meaningful way
decrease in Cmax or AUC value upon coadministration ([11]; 2D regimen + pravastatin vs 2D regimen alone): ≤ 6%
in vitro antiviral activity [12]: show in vitro antiviral activity
decrease in Cmax upon coadministration [13]: 2%
increase in AUC upon coadministration [13]: 26%
change in the Cmax and AUC values upon coadministration [3]: ≤ 10%
change in the Cmax and AUC values upon coadministration [2]: ≤ 15%

COc1ccc2[nH]c([S+]([O-])Cc3ncc(C)c(OC)c3C)nc2c1 (stereo not drawn) [Omeprazole, omeprazole]
AUC(0-t) ([7]; human, plasma, 40 mg): 1170 ng·h/mL
decrease in exposures upon coadministration [7, 20]: approximately 50%
reduction in AUC in the presence of the 2D regimen [7, 20]: 54%
reduction in Cmax in the presence of the 2D regimen [7, 20]: 52%

Cc1cnc(C(=O)N[C@H]2CCCCC/C=C\[C@@H]3C[C@@]3(C(=O)NS(=O)(=O)C3CC3)NC(=O)[C@@H]3C[C@@H](Oc4nc5ccccc5c5ccccc45)CN3C2=O)cn1 [Paritaprevir, paritaprevir]
increase in AUC upon coadministration [6]: 22%
increase in Cmax upon coadministration [6]: 40%
change in the Cmax and AUC values upon coadministration [7]: ≤ 7%
change in the Cmax and AUC values upon coadministration [8]: ≤ 15%
metabolic pathway [9]: primarily metabolized by cytochrome P450 3A (CYP3A)
Tmax and t1/2 (where calculated) [10]: not affected in a meaningful way
increase in AUC upon coadministration [11]: 33%
increase in Cmax upon coadministration [11]: 44%
P-gp inhibition (P-glycoprotein (P-gp)): potential inhibitors
BCRP inhibition [14]: potential inhibitors
in vitro antiviral activity [12]: show in vitro antiviral activity
increase in AUC upon coadministration [13]: 116%
increase in Cmax upon coadministration [13]: 72%
mean t1/2, fold longer upon coadministration [13]: more than 2 fold
increase in exposures upon coadministration ([13]; Cmax and AUC): up to 116%
change in the Cmax and AUC values upon coadministration [3]: ≤ 10%
OATP1B1/B3 inhibition [15]: inhibitor
change in the Cmax and AUC values upon coadministration [2]: ≤ 15%
exposures higher than those observed with the 150-mg paritaprevir dose ([16]; paritaprevir 200 mg): approximately 93%
exposures higher than those observed with the 150-mg paritaprevir dose ([16]; paritaprevir 250 mg): ~250%

CC[C@H](C)C(=O)O[C@H]1C[C@H](O)C=C2C=C[C@H](C)[C@H](CC[C@@H](O)C[C@@H](O)CC(=O)O)[C@H]21 [Pravastatin, pravastatin]
increase in AUC upon coadministration [11]: 76%
increase in Cmax upon coadministration [11]: 43%

CC(=O)C[C@H](c1ccccc1)c1c(O)c2ccccc2oc1=O [R-Warfarin, R-warfarin]
Cmax, Coadministration [8]: 255 (16) ng/ml
AUC (AUC∞), Alone [8]: 19,900 (21)^b ng · h/ml

CC(C)c1nc(CN(C)C(=O)N[C@H](C(=O)N[C@@H](Cc2ccccc2)C[C@H](O)[C@H](Cc2ccccc2)NC(=O)OCc2cncs2)C(C)C)cs1 [Ritonavir, ritonavir]
change in Cmax and AUC values upon coadministration [6, 19]: ≤ 12%
change in the Cmax and AUC values upon coadministration [7]: ≤ 7%
change in the Cmax and AUC values upon coadministration [8]: ≤ 15%
metabolic pathway [9]: primarily metabolized by cytochrome P450 3A (CYP3A)
Tmax and t1/2 (where calculated) [10]: not affected in a meaningful way
increase in AUC upon coadministration [11]: 37%
increase in Cmax upon coadministration [11]: 37%
change in the Cmax and AUC values upon coadministration [3]: ≤ 10%
change in the Cmax and AUC values upon coadministration [2]: ≤ 15%

CC(C)c1nc(N(C)S(C)(=O)=O)nc(-c2ccc(F)cc2)c1/C=C/[C@@H](O)C[C@@H](O)CC(=O)O [Rosuvastatin, rosuvastatin]
increase in AUC upon coadministration [6]: 33%
increase in Cmax upon coadministration [6]: 161%
increase in exposures upon coadministration ([6]; rosuvastatin + 2D regimen vs rosuvastatin alone): ≤ 161%

CNCCC[C@@]1(c2ccc(F)cc2)OCc2cc(C#N)ccc21 [S-Desmethylcitalopram, S-desmethylcitalopram]
change in the Cmax and AUC values in the presence of the 2D regimen [4, 18]: ≤ 20%
AUC (AUC∞), Coadministration [4, 21]: 167 (11)^b ng · h/ml
Cmax, Coadministration [4, 21]: 1.77 (26) ng/ml
AUC (AUC∞), Alone ([4]; escitalopram study, escitalopram without 2D regimen, geometric mean (%CV)): 153 (16)^b ng · h/ml

CC(=O)C[C@@H](c1ccccc1)c1c(O)c2ccccc2oc1=O [S-Warfarin, S-warfarin]
change in the Cmax and AUC values upon coadministration [8]: ≤ 15%
Cmax, Coadministration [8]: 240 (14) ng/ml
AUC (AUC∞), Alone [8]: 13,000 (25)^b ng · h/ml
